Experimental findings from EP4553077A1 (Kinoteck Therapeutics Co., Ltd, priority 2022, dated 2024) are described below.

The structures appear in SMILES notation.

This assay concerns the target Ba/F3-TEL-FGFR2 (Homo sapiens, UniProt P21802+P41212). Description: Cell viability (proliferation inhibition) of Ba/F3 cells, CellTiter Glo. To be noted: read-out: Ba/F3 cell FGFR2 (IC50 nM), 72 h.

Sequence of Ba/F3-TEL-FGFR2 (P21802 481-770 limits assumed, one chain of several): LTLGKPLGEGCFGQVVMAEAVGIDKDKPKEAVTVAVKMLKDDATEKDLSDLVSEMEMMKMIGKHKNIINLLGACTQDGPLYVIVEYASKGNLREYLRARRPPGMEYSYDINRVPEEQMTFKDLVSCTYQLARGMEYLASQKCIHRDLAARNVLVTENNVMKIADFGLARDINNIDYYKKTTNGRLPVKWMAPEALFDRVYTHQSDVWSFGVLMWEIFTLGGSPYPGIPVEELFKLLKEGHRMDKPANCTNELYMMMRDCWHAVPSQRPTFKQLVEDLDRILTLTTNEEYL

With `C=C(C)C(=O)Nc1ccc(-c2c(-c3ccc(N=S4(=O)CC(C)(C)C4)c(F)c3)c3c(N)ncnc3n2C)c(F)c1` [Compound 106, N-(4-(4-amino-5-(4-((3,3-dimethyl-1-oxo-1 λ^6-thiocyclobutan-1-ylidene)amino) -3-fluorophenyl) -7-methyl-7H-pyrrolo [2,3-d]pyrimidin-6-yl) -3-fluorophenyl) methacrylamide], the IC50 is 2.2 nM.
As for `C=C(C)C(=O)Nc1ccc(-c2c(-c3ccc(N=S4(=O)CCCCC4)c(F)c3)c3c(N)ncnc3n2C)c(OC)c1` [Compound 14, N-(4-(4-amino-5-(3-fluoro-4-((1-oxotetrahydro-2H-1 λ^6-thiopyran-1-ylidene)amino)phenyl)-7-methyl-7H-pyrrolo[2,3-d]pyrimidin-6-yl)-3-methoxyphenyl) methacrylamide], the IC50 is 9.9 nM.
As to `C=C(C)C(=O)Nc1ccc(-c2c(-c3ccc(N=S4(=O)CC5(COC5)C4)c(F)c3)c3c(N)ncnc3n2C)cc1` [Compound 11], the IC50 is 172 nM.
Turning to `C=C(C)C(=O)Nc1ccc(-c2c(-c3ccc(N=S4(=O)CCCCC4)c(F)c3)c3c(N)ncnc3n2C)cc1F` [Compound 37, N-(4-(4-amino-5-(3-fluoro-4-((1-oxotetrahydro-2H-1 λ^6-thiopyran-1-ylidene)amino)phenyl) -7-methyl-7H-pyrrolo [2,3-d]pyrimidin-6-yl) -2-fluorophenyl) methacrylamide], the IC50 amounted to 32 nM.
With `C=C(C)C(=O)Nc1ccc(-c2c(-c3ccc(N=S(=O)(N(C)C)C(F)(F)F)cc3)c3c(N)ncnc3n2C)cc1` (stereo not drawn) [Compound 28], the IC50 is 0.9 nM.
For `C=C(C)C(=O)Nc1ccc(-c2c(-c3ccc(N=S(=O)(N4CCCC4)C(F)(F)F)c(F)c3)c3c(N)ncnc3n2C)cc1` (stereo not drawn) [Compound 47, N-(4-(4-amino-5-(3-fluoro-4-((oxo (pyrrolidine-1-yl) (trifluoromethyl) - λ^6-sulfanylidene)amino)phenyl) -7-methyl-7H-pyrrolo [2,3-d]pyrimidin-6-yl)phenyl) methacrylamide], the IC50 stood at 2.7 nM.
`C=C(C)C(=O)Nc1ccc(-c2c(-c3ccc(N=S4(=O)CCCC4)c(OC)c3)c3c(N)ncnc3n2C)c(Cl)c1` [Compound 81, N-(4-(4-amino-5-(3-methoxy-4-((1-hydroperoxid-1 λ^6-thiophene-1-ylidene)amino)phenyl) -7-methyl-7H-pyrrolo [2,3-d]pyrimidin-6-yl) -3-chlorophenyl) methacrylamide]: the IC50 was determined as 18.1 nM.
The result for `C=C(C)C(=O)Nc1ccc(-c2c(-c3ccc(N=S(=O)(N4CCC4)C(F)(F)F)cc3)c3c(N)ncnc3n2C)cc1` (stereo not drawn) [Compound 51, N-(4-(4-amino-5-(4-((azetidin-1-yl(oxo)(trifluoromethyl)-λ^6-sulfanylidene)amino)phenyl) -7-methyl-7H-pyrrolo [2,3-d]pyrimidin-6-yl)phenyl) methacrylamide] reads 19.1 nM; that for `C=C(C)C(=O)N1CC=C(c2c(-c3ccc(N=S4(=O)CCCCC4)cc3)c3c(N)ncnc3n2C)CC1` [Compound 3, 1-(4-(4-amino-7-methyl-5-(4-(1-oxotetrahydro-2H-1λ^6-thiopyran-1-imino)phenyl)-7H-pyrrolo[2,3-d]pyrimidin-6-yl)-3,6-dihydropyridine-1(2H)-yl)2-methylprop-2-enyl-1-one], 700 nM; that for `C=C(C)C(=O)Nc1ccc(-c2c(-c3ccc(N=S(C)(=O)C4CCC4)cc3)c3c(N)ncnc3n2C)c(F)c1` (stereo not drawn) [Compound 50, N-(4-(4-amino-5-(4-((cyclobutyl (methyl) (oxo) - λ^6-sulfanylidene)amino)phenyl) -7-methyl-7H-pyrrole [2,3-d]pyrimidin-6-yl) -3-fluorophenyl) methacrylamide], 7.6 nM.
In the case of `C=C(C)C(=O)Nc1ccc(-c2c(-c3ccc(N=S(=O)(N(C)CC)C(F)(F)F)c(F)c3)c3c(N)ncnc3n2C)cc1` (stereo not drawn) [Compound 53, N-(4-(4-amino-5-(4-(((ethyl(methyl)amino)(oxo)(trifluoromethyl)-λ^6-sulfanylidene)amino)-3-fluorophenyl)-7-methyl-7H-pyrrolo[2,3-d]pyrimidin-6-yl)phenyl) methacrylamide], the IC50 is 10.2 nM.
With `C=C(C)C(=O)Nc1ccc(-c2c(-c3ccc(N=S4(=O)CCOCC4)c(F)c3)c3c(N)ncnc3n2C)cc1` [Compound 41], the IC50 was found to be 124 nM.
As for `C=C(C)C(=O)Nc1ccc(-c2c(-c3ccc(N=S4(=O)CCC(F)(F)CC4)cc3)c3c(N)ncnc3n2C)c(F)c1` [Compound 6, N-(4-(4-amino-5-(4-(4,4-difluoro-1-oxotetrahydro-2H-λ^6-thiopyran-1-imino)phenyl) -7-methyl-7H-pyrrolo [2,3-d]pyrimidin-6-yl) -3-fluorophenyl) methacrylamide], the IC50 worked out at 9.3 nM.
In the case of `[2H]c1c([2H])c(-c2c(-c3ccc(NC(=O)C(=C)C)cc3F)n(C)c3ncnc(N)c23)c([2H])c([2H])c1N=S1(=O)CCCC1` [Compound 114, N-(4-(4-amino-7-methyl-5-(4-((1-oxidetetrahydro-1 λ^6-thiophene-1-ylidene)amino)phenyl-2,3,5,6-d4) -7H-pyrrolo [2,3-d]pyrimidin-6-yl) -3-fluorophenyl) methacrylamide], the IC50 amounted to 1.2 nM.
For `C=C(C)C(=O)Nc1ccc(F)c(-c2c(-c3ccc(N=S(=O)(N(C)C)C(F)(F)F)cc3)c3c(N)ncnc3n2C)c1` (stereo not drawn) [Compound 39], the IC50 came to 10.2 nM.
The result for `CN(C)C/C=C/C(=O)Nc1ccc(-c2c(-c3ccc(N=S4(=O)CCCCC4)c(F)c3)c3c(N)ncnc3n2C)cc1` [Compound 16, (E)-N-(4-(4-amino-5-(3-fluoro-4-((1-oxotetrahydro-2H-1 λ^6-thiopyran-1-ylidene)amino)phenyl) -7-methyl-7H-pyrrolo [2,3-d]pyrimidin-6-yl) - phenyl) -4-(dimethylamino) -2-butenamide] reads 50.1 nM; that for `[2H]c1cc(-c2c(-c3ccc(NC(=O)C(=C)C)cc3F)n(C)c3ncnc(N)c23)cc([2H])c1N=S1(=O)CCCC1` [Compound 113], 1.8 nM; that for `C=C(C)C(=O)Nc1ccc(-c2c(-c3ccc(N=S(=O)(CC)CC)cc3)c3c(N)ncnc3n2C)c(C(F)F)c1` [Compound 73], 11.1 nM.
Take `CN(C)C/C=C/C(=O)N1CC=C(c2c(-c3ccc(N=S4(=O)CCCCC4)cc3)c3c(N)ncnc3n2C)CC1` [Compound 67, (E)-1-(4-(4-amino-7-methyl-5-(4-((1-oxotetrahydro-2H-1λ^6-thiopyran-1-ylidene)amino)phenyl) -7H-pyrrolo [2,3-d]pyrimidin-6-yl) -3,6-dihydropyridine-1 (2H)-yl) -4-(dimethylamino) but-2-enyl-1-one]: the IC50 was 105 nM.
The result for `C=C(C)C(=O)Nc1ccc(-c2c(-c3ccc(N=S4(=O)CCCC4)c(OC)c3)c3c(N)ncnc3n2C)c(F)c1` [Compound 80, N-(4-(4-amino-5-(3-methoxy-4-((1-hydroperoxid-1λ^6-thiophene-1-ylidene)amino)phenyl)-7-methyl-7H-pyrrolo[2,3-d]pyrimidin-6-yl)-3-fluorophenyl) methacrylamide] reads 46 nM.
Regarding `C=C(C)C(=O)Nc1ccc(-c2c(-c3ccc(N=S4(=O)CC(C)(C)C4)c(F)c3)c3c(N)ncnc3n2C)cc1` [Compound 57, N-(4-(4-amino-5-(4-((3,3-dimethyl-1-oxo-1λ^6-thiocyclobutyl-1-ylidene)amino) -3-fluorophenyl) -7-methyl-7H-pyrrolo [2,3-d]pyrimidin-6-yl)phenyl) methacrylamide], the IC50 stood at 17.4 nM.
Regarding `C=C(C)C(=O)Nc1ccc(-c2c(-c3ccc(N=S(=O)(CC)CC)c(F)c3)c3c(N)ncnc3n2C)c(C)c1` [Compound 101], the IC50 was found to be 4.7 nM.
The result for `[2H]C([2H])([2H])n1c(-c2ccc(NC(=O)C(=C)C)cc2F)c(-c2ccc(N=S3(=O)C=CC(C)(C)C3)cc2)c2c(N)ncnc21` (stereo not drawn) [Compound 108, N-(4-(4-amino-5-(4-((3,3-dimethyl-1-oxo-1 λ^6-thiophene-1-ylidene)amino)phenyl) -7-(methyl-d3) -7H-pyrrolo [2,3-d]pyrimidin-6-yl) -3-fluorophenyl) methacrylamide] reads 2.5 nM; that for `C=C(C)C(=O)Nc1ccc(-c2c(-c3ccc(N=S4(=O)CCC4)c(F)c3)c3c(N)ncnc3n2C)c(C)c1` [Compound 99], 2.7 nM; that for `C=C(C)C(=O)Nc1ccc(-c2c(-c3ccc(N=S4(=O)CCCCC4)c(C)c3)c3c(N)ncnc3n2C)cc1` [Compound 34, N-(4-(4-amino-7-methyl-5-(3-methyl-4-((1-oxotetrahydro-2H-1λ^6-thiopyran-1-ylidene)amino)phenyl) -7H-pyrrolo [2,3-d]pyrimidin-6-yl)phenyl) methacrylamide], 17.9 nM.
For the molecule `C=C(C)C(=O)Nc1ccc(-c2c(-c3ccc(N=S(C)(C)=O)c(F)c3)c3c(N)ncnc3n2C)c(F)c1` [Compound 42], the IC50 was 32.9 nM.
In the case of `C=C(C)C(=O)Nc1ccc(-c2c(-c3cc(F)c(N=S4(=O)CCCC4)c(F)c3)c3c(N)ncnc3n2C)cc1` [Compound 27, N-(4-(4-amino-5-(3,5-difluoro-4-((1-oxotetrahydro-1 λ^6-thiophene-1-ylidene)amino)phenyl) -7-methyl-7H-pyrrolo [2,3-d]pyrimidin-6-yl)phenyl) methacrylamide], the IC50 came to 26 nM.
The result for `C=C(F)C(=O)Nc1ccc(-c2c(-c3ccc(N=S4(=O)CCCC4)cc3)c3c(N)ncnc3n2C)c(F)c1` [Compound 111] reads under 0.15 nM; that for `C=C(C)C(=O)N(C)c1ccc(-c2c(-c3ccc(N=S4(=O)CCCCC4)c(F)c3)c3c(N)ncnc3n2C)cc1` [Compound 46, N-(4-(4-amino-5-(3-fluoro-4-((1-oxotetrahydro 2H-1λ^6 - thiopyran-1-ylidene)amino)phenyl) -7-methyl-7H-pyrrolo [2,3-d]pyrimidin-6-yl)phenyl) - N-methylmethacrylamide], 162 nM.
As to `C=C(C)C(=O)Nc1ccc(-c2c(-c3ccc(N=S(=O)(N(C)CC)C(F)(F)F)cc3)c3c(N)ncnc3n2C)cc1` (stereo not drawn) [Compound 54, N-(4-(4-amino-5-(4-(((ethyl (methyl)amino) (oxo) (trifluoromethyl) -λ^6-sulfanylidene)amino)phenyl) -7-methyl-7H-pyrrolo [2,3-d]pyrimidin-6-yl)phenyl) methacrylamide], the IC50 worked out at 2.8 nM.
